Test results taken from US9718804B2, “GSK-3 inhibitors” (BRISTOL-MYERS SQUIBB COMPANY, priority 2013, dated 2017).
Where two headings read alike, the source gives them in different places.

Experiments:
[1] = biological target: GSK3β (Homo sapiens, UniProt P49841); assay: GSK3β kinase assay (Caliper LabChip, fluoresceinated peptide substrate); assay type: biochemical
Procedure, shortened: (§1)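 Readout: electrophoretic resolution of phosphorylated from unphosphorylated peptide on a LabChip3000. Reactions incubated 20 h at room temperature before termination with 35 mM EDTA. Eleven-concentration curves gave IC50 via non-linear regression.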

[2] = biological target: GSK3α (Homo sapiens, UniProt P49840); assay: GSK3α kinase assay (Caliper LabChip, fluoresceinated peptide substrate); assay type: biochemical
Chain of GSK3α (P49840 whole entry, species assumed): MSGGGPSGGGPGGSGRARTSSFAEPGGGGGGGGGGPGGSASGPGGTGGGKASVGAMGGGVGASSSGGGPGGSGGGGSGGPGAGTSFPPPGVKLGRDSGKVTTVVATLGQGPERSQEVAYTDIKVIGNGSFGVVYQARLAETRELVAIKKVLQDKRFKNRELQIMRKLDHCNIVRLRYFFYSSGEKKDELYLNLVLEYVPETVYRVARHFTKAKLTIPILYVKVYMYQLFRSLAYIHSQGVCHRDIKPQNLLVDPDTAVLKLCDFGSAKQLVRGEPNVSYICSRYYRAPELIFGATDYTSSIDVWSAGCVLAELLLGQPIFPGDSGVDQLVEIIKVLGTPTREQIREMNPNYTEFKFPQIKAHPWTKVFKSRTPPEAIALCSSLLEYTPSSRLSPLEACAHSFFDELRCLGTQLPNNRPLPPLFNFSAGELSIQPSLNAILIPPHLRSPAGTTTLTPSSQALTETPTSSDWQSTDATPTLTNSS
Procedure, shortened: as §1

[3] = system: pTau; assay: pTau assay (no method described); assay type: cell-based
[4] = first value of the cell, 250 pM enzyme, 20 uM ATP, 20 hours at room temperature, read-out: GSK3β/α (nM): GSK3β IC50
[5] = second value of the cell, 250 pM enzyme, 20 uM ATP, 20 hours at room temperature, read-out: GSK3β/α (nM): GSK3α IC50

Chain of GSK3β (P49841 whole entry, species assumed): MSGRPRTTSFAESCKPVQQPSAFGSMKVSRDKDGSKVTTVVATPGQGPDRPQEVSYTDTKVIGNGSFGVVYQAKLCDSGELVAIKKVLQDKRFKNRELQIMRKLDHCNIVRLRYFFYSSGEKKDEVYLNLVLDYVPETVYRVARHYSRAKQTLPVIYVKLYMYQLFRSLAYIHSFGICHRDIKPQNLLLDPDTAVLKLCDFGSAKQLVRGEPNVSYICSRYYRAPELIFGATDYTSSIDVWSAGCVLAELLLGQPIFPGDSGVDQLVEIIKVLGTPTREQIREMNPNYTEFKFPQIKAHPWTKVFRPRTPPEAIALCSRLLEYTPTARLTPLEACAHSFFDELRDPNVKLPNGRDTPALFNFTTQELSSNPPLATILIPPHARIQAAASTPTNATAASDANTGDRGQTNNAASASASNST

Compound | IC50 [1, 4] | IC50 [2] | IC50 [3] | IC50 [1] | IC50 [2, 5]
Cn1ncc(NC(=O)c2ccnc(Nc3ccc(C(F)(F)F)cn3)c2)c1C(C)(O)C1CC1 (stereo not drawn) [Example 209, N-(5-(1-Cyclopropyl-1-hydroxyethyl)-1-methyl-1H-pyrazol-4-yl)-2-((5-(trifluoromethyl)pyridin-2-yl)amino)isonicotinamide] | 0.3 nM | 0.21 nM | 21 nM |  | 
C[C@@H]1CO[C@](c2cc(Cl)ncc2NC(=O)c2ccnc(Nc3ccc(C(F)(F)F)cn3)c2)(C2CC2)O1 [Example 96, N-(6-Chloro-4-((2R,4R)-2-cyclopropyl-4-methyl-1,3-dioxolan-2-yl)pyridin-3-yl)-2-((5-(trifluoromethyl)pyridin-2-yl)amino)isonicotinamide] | 0.29 nM | 0.16 nM | 39 nM |  | 
CC1(c2cc(F)ncc2NC(=O)c2ccnc(Nc3ccc(C(F)(F)F)cn3)c2)OCCO1 [Example 82, N-(6-Fluoro-4-(2-methyl-1,3-dioxolan-2-yl)pyridin-3-yl)-2-((5-(trifluoromethyl)pyridin-2-yl)amino)isonicotinamide] | 7.1 nM | 1.9 nM | 230 nM |  | 
O=C(Nc1cnccc1-c1ccccc1F)c1ccnc(Nc2ccc(C(F)(F)F)cn2)c1 [Example 49, N-(4-(2-Fluorophenyl)pyridin-3-yl)-2-((5-(trifluoromethyl)pyridin-2-yl)amino)isonicotinamide] | 0.65 nM | 0.32 nM | 53 nM |  | 
N#CC1(c2ccc(Nc3cc(C(=O)Nc4cncc(-c5ccccc5F)c4)ccn3)nc2)CC1 [Example 163, 2-((5-(1-Cyanocyclopropyl)pyridin-2-yl)amino)-N-(5-(2-fluorophenyl)pyridin-3-yl)isonicotinamide] | 3.2 nM | 1.1 nM | 610 nM |  | 
O=C(Nc1cnccc1-c1ccccc1)c1ccnc(Nc2cc(C(F)(F)F)ccn2)c1 [Example 3, N-(4-Phenylpyridin-3-yl)-2-((4-(trifluoromethyl)pyridin-2-yl)amino)isonicotinamide] |  |  | 705 nM | 9 nM | 8.7 nM
O=C(Nc1cncc(OCC(F)(F)F)c1)c1ccnc(Nc2cccc(C(F)(F)F)n2)c1 [Example 123, N-(5-(2,2,2-Trifluoroethoxy)pyridin-3-yl)-2-((6-(trifluoromethyl)pyridin-2-yl)amino)isonicotinamide] |  | 3.2 nM | 520 nM | 7.4 nM | 
CCc1cccc(Nc2cc(C(=O)Nc3cncc(-c4ccccc4F)c3)ccn2)n1 [Example 138, N-(5-(2-Fluorophenyl)pyridin-3-yl)-2-((6-ethylpyridin-2-yl)amino)isonicotinamide] | 3.5 nM | 2.2 nM | 4700 nM |  | 
O=C(Nc1cncc(-n2ccc(C(F)(F)F)n2)c1)c1ccnc(Nc2ccc(C(F)(F)F)cn2)c1 [Example 120, N-(5-(3-(Trifluoromethyl)-1H-pyrazol-1-yl)pyridin-3-yl)-2-((5-(trifluoromethyl)pyridin-2-yl)amino)isonicotinamide] | 29 nM | 14 nM | 1500 nM |  | 
O=C(Nc1cnccc1[S+]([O-])c1ccccc1)c1ccnc(Nc2ccc(C(F)(F)F)cn2)c1 (stereo not drawn) [Example 177, N-(4-(Phenylsulfinyl)pyridin-3-yl)-2-((5-(trifluoromethyl)pyridin-2-yl)amino)isonicotinamide] | 3.9 nM | 1.1 nM | 760 nM |  | 
O=C(Nc1cnccc1-c1ccccc1)c1ccnc(Nc2ccc(F)cn2)c1 [Example 8, 2-((5-Fluoropyridin-2-yl)amino)-N-(4-phenylpyridin-3-yl)isonicotinamide] | 4.1 nM | 1.9 nM | 132 nM |  | 
CC[C@@]1(c2cc(Cl)ncc2NC(=O)c2ccnc(Nc3ccc(C(F)(F)F)cn3)c2)OC[C@@H](C(F)(F)F)O1 [Example 85, N-(6-Chloro-4-((2R,4S)-2-ethyl-4-(trifluoromethyl)-1,3-dioxolan-2-yl)pyridin-3-yl)-2-((5-(trifluoromethyl)pyridin-2-yl)amino)isonicotinamide] | 64 nM | 35 nM | 5500 nM |  | 
O=C(Nc1cnc(Cl)cc1C(=O)C1CC1)c1ccnc(Nc2ccc(C(F)(F)F)cn2)c1 [Example 92, N-(6-Chloro-4-(cyclopropanecarbonyl)pyridin-3-yl)-2-((5-(trifluoromethyl)pyridin-2-yl)amino)isonicotinamide] | 8.8 nM | 4 nM | 1400 nM |  | 
CC(C)(C)[S+]([O-])c1ccncc1NC(=O)c1ccnc(Nc2ccc(C(F)(F)F)cn2)c1 (stereo not drawn) [Example 178, N-(4-(tert-Butylsulfinyl)pyridin-3-yl)-2-((5-(trifluoromethyl)pyridin-2-yl)amino)isonicotinamide] | 0.12 nM | 1.2 nM | 13 nM |  | 
O=C(Nc1cnccc1N1CCCCC1)c1ccnc(Nc2ccc(C(F)(F)F)cn2)c1 [Example 23, N-(4-(Piperidin-1-yl)pyridin-3-yl)-2-((5-(trifluoromethyl)pyridin-2-yl)amino)isonicotinamide] | 0.24 nM | 0.15 nM | 6.5 nM |  | 
O=C(Nc1cnccc1-c1ccc(F)cc1F)c1ccnc(Nc2ccc(C(F)(F)F)cn2)c1 [Example 54, N-(4-(2,4-Difluoro-phenyl)pyridin-3-yl)-2-((5-(trifluoromethyl)pyridin-2-yl)amino)isonicotinamide] | 2.8 nM | 0.96 nM | 57 nM |  | 
O=C(Nc1cnccc1OCC(F)(F)F)c1ccnc(Nc2ccc(C(F)(F)F)cn2)c1 [Example 18, N-(4-(Trifluoroethoxy)pyridin-3-yl)-2-((5-(trifluoromethyl)pyridin-2-yl)amino)isonicotinamide] | 0.71 nM | 0.42 nM | 13 nM |  | 
CCC(O)(c1cc(Cl)ncc1NC(=O)c1ccnc(Nc2ccc(C(F)(F)F)cn2)c1)C1CC1 (stereo not drawn) [Example 101, N-(6-Chloro-4-(1-cyclopropyl-1-hydroxypropyl)pyridin-3-yl)-2-((5-(trifluoromethyl)pyridin-2-yl)amino)isonicotinamide] | 11 nM | 7.4 nM | 660 nM |  | 
CC(C)(C)COc1ccncc1NC(=O)c1ccnc(Nc2ccc(C(F)(F)F)cn2)c1 [Example 17, N-(4-(Neopentyloxy)pyridin-3-yl)-2-((5-(trifluoromethyl)pyridin-2-yl)amino)isonicotinamide] | 1.6 nM | 0.89 nM | 43 nM |  | 
Cc1ccnc(Nc2cc(C(=O)Nc3cncc(-c4ccccc4F)c3)ccn2)c1 [Example 132, N-(5-(2-Fluorophenyl)pyridin-3-yl)-2-((4-methylpyridin-2-yl)amino)isonicotinamide] |  | 6.2 nM | 1900 nM | 9 nM | 
CC1(c2ccncc2NC(=O)c2ccnc(Nc3ccc(C(F)(F)F)cn3)c2)OCCO1 [Example 33, N-(4-(2-Methyl-1,3-dioxolan-2-yl)pyridin-3-yl)-2-((5-(trifluoromethyl)pyridin-2-yl)amino)isonicotinamide] | 0.29 nM | 0.18 nM | 0.55 nM |  | 
N#Cc1ccc(Nc2cc(C(=O)Nc3cncc4ccccc34)ccn2)nc1 [Example 65, 2-((5-Cyanopyridin-2-yl)amino)-N-(isoquinolin-4-yl)isonicotinamide] | 8.5 nM | 3.2 nM | 420 nM |  | 
O=C(Nc1cnc(F)cc1OCC(F)(F)F)c1ccnc(Nc2ccc(Cl)cn2)c1 [Example 110, 2-((5-Chloropyridin-2-yl)amino)-N-(6-fluoro-4-(2,2,2-trifluoroethoxy)pyridin-3-yl)isonicotinamide] | 3.8 nM | 0.51 nM | 170 nM |  | 
CC(C)CS(=O)(=O)c1ccncc1NC(=O)c1ccnc(Nc2ccc(C(F)(F)F)cn2)c1 [Example 185, N-(4-(Isobutylsulfonyl)pyridin-3-yl)-2-((5-(trifluoromethyl)pyridin-2-yl)amino)isonicotinamide] |  |  | 49 nM | 0.51 nM | 4.8 nM
O=C(Nc1cncc(-c2ccccc2F)c1)c1ccnc(Nc2ccc3ccccc3n2)c1 [Example 142, N-(5-(2-Fluorophenyl)pyridin-3-yl)-2-(quinolin-2-ylamino)isonicotinamide] | 23 nM | 5.6 nM | 2100 nM |  | 
CCCS(=O)(=O)c1ccncc1NC(=O)c1ccnc(Nc2ccc(C(F)(F)F)cn2)c1 [Example 182, N-(4-(Propylsulfonyl)pyridin-3-yl)-2-((5-(trifluoromethyl)pyridin-2-yl)amino)isonicotinamide] | 5.2 nM | 2.1 nM | 15 nM |  | 
COc1cccc(Nc2cc(C(=O)Nc3cncc(-c4ccccc4F)c3)ccn2)n1 [Example 139, N-(5-(2-Fluorophenyl)pyridin-3-yl)-2-((6-methoxylpyridin-2-yl)amino)isonicotinamide] | 5.4 nM | 3.2 nM | 1300 nM |  | 
Cc1cc(Nc2cc(C(=O)Nc3cnccc3-c3ccccc3)ccn2)ncc1F [Example 9, 2-((5-Fluoro-4-methylpyridin-2-yl)amino)-N-(4-phenylpyridin-3-yl)isonicotinamide] | 4.1 nM | 2.5 nM | 110 nM |  | 
CC(O)c1c(NC(=O)c2ccnc(Nc3ccc(C(F)(F)F)cn3)c2)cnn1C (stereo not drawn) [Example 208, N-(5-(1-Hydroxyethyl)-1-methyl-1H-pyrazol-4-yl)-2-((5-(trifluoromethyl)pyridin-2-yl)amino)isonicotinamide] | 3 nM | 3.6 nM | 120 nM |  | 
Cc1cc(C(O)C2CC2)c(NC(=O)c2ccnc(Nc3ccc(C(F)(F)F)cn3)c2)cn1 (stereo not drawn) [Example 106, N-(4-(Cyclopropyl(hydroxy)methyl)-6-methylpyridin-3-yl)-2-((5-(trifluoromethyl)pyridin-2-yl)amino)isonicotinamide] | 0.25 nM | 0.49 nM | 22 nM |  | 
